Data: ChEMBL document CHEMBL6092167, “Phosphorylation as an Effective Tool to Improve Stability and Reduce Toxicity of Antimicrobial Peptides” (J Med Chem, 2024)
Values after ≈ are worked out from the molar mass of the structure shown. Active and inactive are the calls of the source. The calls are words filed in the database; no cut-off is given here. Non-standard residues stand in square brackets, D forms with d. Residues, ends and D or L forms follow the SMILES beside them. Bip = N[C@@H](Cc1ccc(-c2ccccc2)cc1)C(=O)O; pT = C[C@@H](OP(=O)(O)O)[C@H](N)C(=O)O

What was measured:
[1] = system: Staphylococcus aureus; experiment: Antibacterial activity against methicillin resistant Staphylococcus aureus ATCC 33591 incubated for 18 to 24 hrs by broth microdilution method; assay type: functional; conditions: time 18-24 hrs
[2] = system: Staphylococcus aureus; experiment: Antibacterial activity against methicillin resistant Staphylococcus aureus 48 incubated for 18 to 24 hrs by broth microdilution method; assay type: functional; conditions: time 18-24 hrs
[3] = system: Staphylococcus aureus; experiment: Antibacterial activity against Staphylococcus aureus 794 incubated for 18 to 24 hrs by broth microdilution method; assay type: functional; conditions: time 18-24 hrs
[4] = system: Pseudomonas aeruginosa; experiment: Antibacterial activity against Pseudomonas aeruginosa 119 incubated for 18 to 24 hrs by broth microdilution method; assay type: functional; conditions: time 18-24 hrs
[5] = system: Staphylococcus aureus; experiment: Antibacterial activity against Staphylococcus aureus ATCC 25923 incubated for 18 to 24 hrs by broth microdilution method; assay type: functional; conditions: time 18-24 hrs
[6] = system: Bacillus subtilis; experiment: Antibacterial activity against Bacillus subtilis ATCC 23857 incubated for 18 to 24 hrs by broth microdilution method; assay type: functional; conditions: time 18-24 hrs
[7] = system: Pseudomonas aeruginosa; experiment: Antibacterial activity against Pseudomonas aeruginosa ATCC 27853 incubated for 18 to 24 hrs by broth microdilution method; assay type: functional; conditions: time 18-24 hrs
[8] = system: Klebsiella pneumoniae; experiment: Antibacterial activity against Klebsiella pneumoniae ATCC 700603 incubated for 18 to 24 hrs by broth microdilution method; assay type: functional; conditions: time 18-24 hrs
[9] = system: Acinetobacter baumannii; experiment: Antibacterial activity against Acinetobacter baumannii ATCC 19606 incubated for 18 to 24 hrs by broth microdilution method; assay type: functional; conditions: time 18-24 hrs
[10] = system: Staphylococcus aureus; experiment: Antibacterial activity against Staphylococcus aureus ATCC 25923 infected in BALB/c mouse systemic infection model assessed as reduction in bacterial load in liver at 1.09 mg/kg, ip pre-infected for 2 hrs followed by compound addition and measured after 8 hrs postinfection; assay type: functional, organism-based; conditions: time 6.0 hrs
[11] = system: Staphylococcus aureus; experiment: Antibacterial activity against Staphylococcus aureus ATCC 25923 infected in BALB/c mouse systemic infection model assessed as reduction in bacterial load in spleen at 1.09 mg/kg, ip pre-infected for 2 hrs followed by compound addition and measured after 8 hrs postinfection; assay type: functional, organism-based; conditions: time 6.0 hrs
[12] = system: Staphylococcus aureus; experiment: Antibacterial activity against Staphylococcus aureus ATCC 25923 infected in BALB/c mouse systemic infection model assessed as reduction in bacterial load in lung at 1.09 mg/kg, ip pre-infected for 2 hrs followed by compound addition and measured after 8 hrs postinfection; assay type: functional, organism-based; conditions: time 6.0 hrs
[13] = system: Staphylococcus aureus; experiment: Antibacterial activity against Staphylococcus aureus ATCC 25923 infected in BALB/c mouse systemic infection model assessed as reduction in bacterial load in kidney at 1.09 mg/kg, ip pre-infected for 2 hrs followed by compound addition and measured after 8 hrs postinfection; assay type: functional, organism-based; conditions: time 6.0 hrs
[14] = system: Staphylococcus aureus; experiment: Antibacterial activity against Staphylococcus aureus ATCC 25923 infected in BALB/c mouse systemic infection model assessed as reduction in inflammatory response in lung tissue at 1.09 mg/kg, ip pre-infected for 2 hrs followed by compound addition and measured after 8 hrs postinfection; assay type: functional, organism-based; conditions: time 6.0 hrs
[15] = system: Staphylococcus aureus; experiment: Antibacterial activity against Staphylococcus aureus ATCC 25923 infected in BALB/c mouse systemic infection model assessed as improved alveoli dilation at 1.09 mg/kg, ip pre-infected for 2 hrs followed by compound addition and measured after 8 hrs postinfection; assay type: functional, organism-based; conditions: time 6.0 hrs
[16] = system: Staphylococcus aureus; experiment: Antibacterial activity against Staphylococcus aureus ATCC 25923 infected in BALB/c mouse systemic infection model assessed as reduction in tissue hemorrhage at 1.09 mg/kg, ip pre-infected for 2 hrs followed by compound addition and measured after 8 hrs postinfection; assay type: functional, organism-based; conditions: time 6.0 hrs
[17] = system: Escherichia coli; experiment: Antibacterial activity against Escherichia coli 780 incubated for 18 to 24 hrs by broth microdilution method; assay type: functional; conditions: time 18-24 hrs
[18] = system: Escherichia coli; experiment: Antibacterial activity against Escherichia coli 850 incubated for 18 to 24 hrs by broth microdilution method; assay type: functional; conditions: time 18-24 hrs
[19] = system: Escherichia coli; experiment: Antibacterial activity against Escherichia coli ATCC 25922 incubated for 18 to 24 hrs by broth microdilution method; assay type: functional; conditions: time 18-24 hrs
[20] = Hemolytic activity in mouse erythrocyte incubated for 1 hr by microplate reader assay; assay type: toxicity, cell-based
[21] = Cytotoxicity against HEK293T cells incubated for 1 hr by fluorescence based microplate reader assay; assay type: toxicity, cell-based, HEK-293T; conditions: human
[22] = system: Klebsiella pneumoniae; experiment: Drug resistance development in Klebsiella pneumoniae ATCC 700603 assessed as fold increase in MIC measured after 7 passage; assay type: functional
[23] = system: Staphylococcus aureus; experiment: Inhibition of biofilm formation in Staphylococcus aureus ATCC 25923 at 2 times MIC incubated for 24 hrs by crystal violet staining based assay; assay type: functional, organism-based
[24] = system: Staphylococcus aureus; experiment: Antibiofilm activity against Staphylococcus aureus ATCC 25923 assessed as eradication of preformed biofilms at 4 times MIC incubated for 24 hrs by crystal violet staining based assay; assay type: functional, organism-based
[25] = system: Staphylococcus aureus; experiment: Bactericidal activity against Staphylococcus aureus ATCC 25923 at 2 times MIC incubated for 24 hrs by time kill assay; assay type: functional

| Compound | MIC [1] [µM] | MIC [2] [µM] | MIC [3] [µM] | MIC [4] [µM] | MIC [5] [µM] | MIC [6] [µM] | MIC [7] [µM] | MIC [8] [µM] | MIC [9] [µM] | MIC [17] [µM] | MIC [18] [µM] | MIC [19] [µM] | MHC [20] [µM] | CC50 at 1 h [21] [µM] | also measured |
| --- | --- | --- | --- | --- | --- | --- | --- | --- | --- | --- | --- | --- | --- | --- | --- |
| CNC(C)[C@@H]1CC[C@@H](N)[C@@H](O[C@H]2[C@H](O)[C@@H](O[C@H]3OC[C@](C)(O)[C@H](NC)[C@H]3O)[C@H](N)C[C@@H]2N)O1.CN[C@@H]1[C@@H](O)[C@@H](O[C@@H]2[C@@H](O)[C@H](O[C@H]3O[C@H](C(C)N)CC[C@H]3N)[C@@H](N)C[C@H]2N)OC[C@]1(C)O.CN[C@@H]1[C@@H](O)[C@@H](O[C@@H]2[C@@H](O)[C@H](O[C@H]3O[C@H](CN)CC[C@H]3N)[C@@H](N)C[C@H]2N)OC[C@]1(C)O (stereo not given in full) | 32 | 64 | 64 | > 128 | < 1 | < 1 | < 1 | 8 | 8 |  |  |  |  |  | Activity [10]: Active; Activity [11]: Active; Activity [12]: Active; Activity [13]: Active; Activity [14]: Active; Activity [15]: inactive; Activity [16]: Active |
| CC(C)C[C@H](NC(=O)[C@H](CC(C)C)NC(=O)[C@@H](NC(=O)[C@H](CCCCN)NC(=O)[C@H](CC(C)C)NC(=O)[C@H](CCCNC(=N)N)NC(=O)[C@H](CCCCN)NC(=O)[C@H](Cc1ccc(-c2ccccc2)cc1)NC(=O)[C@H](CC(C)C)NC(=O)CN)[C@@H](C)O)C(N)=O (H-GL[Bip]KRLKTLL-NH2) | 8 (≈ 10.1 µg/mL) | 8 (≈ 10.1 µg/mL) | 8 (≈ 10.1 µg/mL) | 8 (≈ 10.1 µg/mL) | 8 (≈ 10.1 µg/mL) | 8 (≈ 10.1 µg/mL) | 8 (≈ 10.1 µg/mL) | 8 (≈ 10.1 µg/mL) | 8 (≈ 10.1 µg/mL) | 8 (≈ 10.1 µg/mL) | 8 (≈ 10.1 µg/mL) | 8 (≈ 10.1 µg/mL) | 47.48 | 76.4 |  |
| CC(C)C[C@H](NC(=O)[C@H](CC(C)C)NC(=O)[C@@H](NC(=O)[C@H](CCCCN)NC(=O)[C@H](CC(C)C)NC(=O)[C@H](CCCNC(=N)N)NC(=O)[C@H](CCCCN)NC(=O)[C@H](Cc1ccc(-c2ccccc2)cc1)NC(=O)[C@H](CC(C)C)NC(=O)CN)[C@@H](C)OP(=O)(O)O)C(N)=O (H-GL[Bip]KRLK[pT]LL-NH2) | 54 (≈ 72.6 µg/mL) | 32 (≈ 43 µg/mL) | 16 (≈ 21.5 µg/mL) | 32 (≈ 43 µg/mL) | 64 (≈ 86 µg/mL) | 16 (≈ 21.5 µg/mL) | 16 (≈ 21.5 µg/mL) | 64 (≈ 86 µg/mL) | 32 (≈ 43 µg/mL) | 16 (≈ 21.5 µg/mL) | 32 (≈ 43 µg/mL) | 32 (≈ 43 µg/mL) | 125.83 | 112 |  |
| NC[C@H]1O[C@H](O[C@H]2[C@H](O)[C@@H](O[C@H]3O[C@H](CO)[C@@H](O)[C@H](N)[C@H]3O)[C@H](N)C[C@@H]2N)[C@H](O)[C@@H](O)[C@@H]1O [KANAMYCIN] | > 128 | > 128 | 64 (≈ 31 µg/mL) | 64 (≈ 31 µg/mL) | < 1 | < 1 | > 128 | 32 (≈ 15.5 µg/mL) | 8 (≈ 3.88 µg/mL) | 32 (≈ 15.5 µg/mL) | > 128 | 8 (≈ 3.88 µg/mL) |  |  | fold change (FC) [22]: 128 |
| CO[C@H]1/C=C/O[C@@]2(C)Oc3c(C)c(O)c4c(O)c(c(/C=N/N5CCN(C)CC5)c(O)c4c3C2=O)NC(=O)/C(C)=C\C=C\[C@H](C)[C@H](O)[C@@H](C)[C@@H](O)[C@@H](C)[C@H](OC(C)=O)[C@@H]1C [RIFAMPIN] |  |  |  |  | < 1 | < 1 | 32 (≈ 26.3 µg/mL) | 32 (≈ 26.3 µg/mL) | 1 (≈ 0.823 µg/mL) |  |  | 8 (≈ 6.58 µg/mL) |  |  | fold change (FC) [22]: 128 |
| CN[C@H](CC(C)C)C(=O)N[C@H]1C(=O)N[C@@H](CC(N)=O)C(=O)N[C@H]2C(=O)N[C@H]3C(=O)N[C@H](C(=O)N[C@H](C(=O)O)c4cc(O)cc(O)c4-c4cc3ccc4O)[C@H](O)c3ccc(c(Cl)c3)Oc3cc2cc(c3O[C@@H]2O[C@H](CO)[C@@H](O)[C@H](O)[C@H]2O[C@H]2C[C@](C)(N)[C@H](O)[C@H](C)O2)Oc2ccc(cc2Cl)[C@H]1O [VANCOMYCIN] | < 1 | < 1 | 128 (≈ 186 µg/mL) | > 128 | < 1 | < 1 | > 128 | > 128 | 64 (≈ 92.8 µg/mL) | 128 (≈ 186 µg/mL) | 128 (≈ 186 µg/mL) | 128 (≈ 186 µg/mL) |  |  | inhibition [23]: Active; Activity [24]: Active; Showed Poor Efficacy; Activity [25]: 100% |
| H-GLLKRWKTLL-NH2 | 128 | 128 | 32 | 32 | > 128 | 8 | 8 | 64 | > 128 | 32 | 32 | 64 | > 256 | > 128 |  |
| H-GLLKRWKYLL-NH2 | 32 | 32 | 16 | 16 | 64 | 4 | 8 | 64 | 64 | 8 | 16 | 16 | > 256 | > 128 |  |
| H-GLWKRLKTLL-NH2 | 8 | 8 | 8 | 16 | 16 | 4 | 4 | 8 | 32 | 8 | 8 | 8 | > 256 | > 128 |  |
| H-GLWKRLKYLL-NH2 | 8 | 8 | 8 | 16 | 8 | 4 | 8 | 8 | 8 | 8 | 8 | 8 | 182.72 | 115 |  |
